Experiments:
[1] = cited from earlier work
[2] = system: carbapenemase-producing E. coli strains; experiment: Colistin MIC by broth microdilution (BMD), CLSI/EUCAST; type: cell-based, Escherichia coli

## CN(C)P(N(C)C)N(C)C [Hexamethyl-phosphorous triamide (HMPT), Hexamethylphosphorous triamide]
[1]
  Solubility in water: Miscible

## Colistin (Polymyxin E)
[2]; KPC-2 producing E. coli, N=1, mcr-1/-2 PCR negative
  Colistin MIC: 0.25 µg/mL
[2]; KPC-3 producing E. coli, N=1, mcr-1/-2 PCR negative
  Colistin MIC: 0.25 µg/mL
[2]; NDM-1 producing E. coli, N=1, mcr-1/-2 PCR negative
  Colistin MIC: 0.5 µg/mL
[2]; NDM-1 producing E. coli, N=1, mcr-1 PCR positive, PRR 1.73 ± 0.23
  Colistin MIC: 4 µg/mL
[2]; NDM-1 producing E. coli, N=1, mcr-1 PCR positive, PRR 2.34 ± 0.12
  Colistin MIC: 4 µg/mL
[2]; NDM-1 producing E. coli, N=3, mcr-1/-2 PCR negative
  Colistin MIC: 0.25 µg/mL
[2]; NDM-5 producing E. coli, N=2, mcr-1/-2 PCR negative
  Colistin MIC: 0.25 µg/mL
[2]; NDM-5 producing E. coli, N=3, mcr-1/-2 PCR negative
  Colistin MIC: 0.5 µg/mL
[2]; OXA-48 producing E. coli, N=1, mcr-1/-2 PCR negative
  Colistin MIC: 1 µg/mL
[2]; OXA-48 producing E. coli, N=1, mcr-1 PCR positive, PRR 1.29 ± 0.63
  Colistin MIC: 4 µg/mL
[2]; OXA-48 producing E. coli, N=26, mcr-1/-2 PCR negative
  Colistin MIC: 0.5 µg/mL
[2]; OXA-48 producing E. coli, N=27, mcr-1/-2 PCR negative
  Colistin MIC: 0.25 µg/mL
[2]; OXA-181 + NDM-5 producing E. coli, N=1, mcr-1/-2 PCR negative
  Colistin MIC: 0.25 µg/mL
[2]; OXA-181 producing E. coli, N=4, mcr-1/-2 PCR negative
  Colistin MIC: 0.25 µg/mL
[2]; OXA-204 producing E. coli, N=1, mcr-1/-2 PCR negative
  Colistin MIC: 0.25 µg/mL
[2]; OXA-244 producing E. coli, N=1 (first line), mcr-1/-2 PCR negative
  Colistin MIC: 0.25 µg/mL
[2]; OXA-244 producing E. coli, N=1 (second line), mcr-1/-2 PCR negative
  Colistin MIC: 0.5 µg/mL
[2]; VIM-1 producing E. coli, N=1, mcr-1/-2 PCR negative
  Colistin MIC: 0.5 µg/mL
[2]; VIM-4 producing E. coli, N=1, mcr-1/-2 PCR negative
  Colistin MIC: 0.25 µg/mL
[2]; two NDM-1 and one OXA-48 producer, resistant to colistin, positive for the mcr-1 gene
  MICs of colistin: 4 mg/L

## CC(C)O [2-propanol]
[1]
  Solubility in water: Miscible

## COCCOCCOC [diethylene glycol dimethyl ether]
[1]
  Solubility in water: Miscible

## OCC(O)CO [glycerin]
[1]
  Solubility in water: Miscible

## C1CCCCC1 [cyclohexane]
[1]
  Solubility in water: <0.1 g/100 g

## Clc1ccccc1 [chlorobenzene]
[1]
  Solubility in water: 0.05 g/100 g

## CCCCCC [hexane]
[1]
  Solubility in water: 0.014 g/100 g

## COCCOC [1,2-dimethoxy-ethane (glyme, DME), 1,2-dimethoxy-ethane]
[1]
  Solubility in water: Miscible

## CCO [ethanol]
[1]
  Solubility in water: Miscible

## C[S+](C)[O-] [dimethyl sulfoxide (DMSO), dimethyl sulfoxide]
[1]
  Solubility in water: 25.3 g/100 g

## CCOC(C)=O [ethyl acetate]
[1]
  Solubility in water: 8.7 g/100 g

## CN1CCCC1=O [N-methyl-2-pyrrolidinone (NMP), N-methyl-2-pyrrolidinone]
[1]
  Solubility in water: 10 g/100 g
